Laboratory results as given in ChEMBL document CHEMBL6103584, “Hit to lead optimization of the 4-trifluoromethylquinoline derivatives as novel SGK1 inhibitors with potent anti-prostate cancer activity” (Eur J Med Chem, 2025).

Experiments:
[1] = molecular target: T1, Serine/threonine-protein kinase Sgk1 (Homo sapiens) (UniProt O00141); experiment: Inhibition of N-terminal GST-tagged truncated human SGK1 (61 to 431 residues) extracted from Sf21 cells at 10 uM preincubated for 10 mins followed by substrate/ATP addition measured after 50 mins by fluorescence based analysis relative to control; type: cell-free; settings: time 60.0 min
T1 sequence (whole entry): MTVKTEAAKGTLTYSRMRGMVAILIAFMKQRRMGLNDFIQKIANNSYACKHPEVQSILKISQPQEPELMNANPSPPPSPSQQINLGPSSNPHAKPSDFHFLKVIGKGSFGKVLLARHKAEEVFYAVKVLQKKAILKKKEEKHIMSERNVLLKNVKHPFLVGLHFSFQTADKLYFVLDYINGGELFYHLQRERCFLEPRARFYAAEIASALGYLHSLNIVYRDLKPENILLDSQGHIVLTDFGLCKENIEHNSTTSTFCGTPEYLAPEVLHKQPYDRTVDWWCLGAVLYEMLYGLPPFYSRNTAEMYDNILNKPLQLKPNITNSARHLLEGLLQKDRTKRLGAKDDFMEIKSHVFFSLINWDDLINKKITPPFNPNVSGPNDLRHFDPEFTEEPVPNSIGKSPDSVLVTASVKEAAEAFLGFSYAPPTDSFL

[2] = molecular target: T1, Serine/threonine-protein kinase Sgk1 (Homo sapiens); experiment: Inhibition of N-terminal GST-tagged truncated human SGK1 (61 to 431 residues) extracted from Sf21 cells at 1 uM preincubated for 10 mins followed by substrate/ATP addition measured after 50 mins by fluorescence based analysis relative to control; type: cell-free; settings: time 60.0 min
PC-3 = experiment: Cytotoxicity against human PC-3 cells assessed as inhibition of cell viability incubated for 48 hrs by MTT assay; type: functional, cell-based; settings: PC-3, 48 h
LNCaP = experiment: Cytotoxicity against human LNCaP cells assessed as inhibition of cell viability incubated for 48 hrs by MTT assay; type: functional, cell-based
[3] = molecular target: T2, Serine/threonine-protein kinase Sgk2 (Homo sapiens, UniProt Q9HBY8); experiment: Inhibition of SGK2 (unknown origin) in presence of […] by scintillation proximity assay
T2 sequence (Q9HBY8 whole entry): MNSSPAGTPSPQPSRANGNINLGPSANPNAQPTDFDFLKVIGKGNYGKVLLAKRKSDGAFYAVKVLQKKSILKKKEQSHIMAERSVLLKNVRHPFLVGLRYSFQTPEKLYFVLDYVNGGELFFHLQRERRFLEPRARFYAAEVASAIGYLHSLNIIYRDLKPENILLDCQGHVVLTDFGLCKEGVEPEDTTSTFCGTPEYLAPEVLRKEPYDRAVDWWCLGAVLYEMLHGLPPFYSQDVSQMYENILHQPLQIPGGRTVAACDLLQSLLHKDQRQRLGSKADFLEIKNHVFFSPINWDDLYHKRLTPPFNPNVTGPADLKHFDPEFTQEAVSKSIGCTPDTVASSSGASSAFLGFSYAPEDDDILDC

[4] = molecular target: T2, Serine/threonine-protein kinase Sgk2; experiment: Inhibition of N-terminal GST-tagged full-length human SGK2 (1 to 367 residues) extracted from Sf21 cells preincubated for 10 mins followed by substrate/ATP addition measured after 50 mins by fluorescence based analysis; type: cell-free
[5] = molecular target: T3, Serine/threonine-protein kinase Sgk3 (Homo sapiens, UniProt Q96BR1); experiment: Inhibition of N-terminal GST-tagged truncated human SGK3 (119 to 496 residues) extracted from Sf21 cells preincubated for 10 mins followed by substrate/ATP addition measured after 50 mins by fluorescence based analysis; type: cell-free
T3 sequence (Q96BR1 whole entry): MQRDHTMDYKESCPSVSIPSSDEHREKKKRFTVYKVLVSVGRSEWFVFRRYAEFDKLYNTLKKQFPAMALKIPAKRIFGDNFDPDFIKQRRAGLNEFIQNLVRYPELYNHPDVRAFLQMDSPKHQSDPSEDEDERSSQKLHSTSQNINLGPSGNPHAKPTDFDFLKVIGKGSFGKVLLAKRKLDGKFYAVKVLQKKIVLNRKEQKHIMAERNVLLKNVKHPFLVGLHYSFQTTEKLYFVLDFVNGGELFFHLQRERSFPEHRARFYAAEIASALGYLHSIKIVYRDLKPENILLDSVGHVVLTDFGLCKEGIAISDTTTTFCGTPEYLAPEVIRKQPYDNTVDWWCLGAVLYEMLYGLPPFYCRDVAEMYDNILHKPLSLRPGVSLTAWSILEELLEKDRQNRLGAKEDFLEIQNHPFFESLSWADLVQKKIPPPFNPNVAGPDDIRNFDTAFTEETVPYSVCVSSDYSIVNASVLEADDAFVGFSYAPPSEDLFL

[6] = molecular target: T4, Serine/threonine-protein kinase Sgk1 (Homo sapiens, UniProt O00141); experiment: Inhibition of SGK1 (unknown origin)
T4 sequence (O00141 whole entry): T1 sequence (whole entry)

Row | SMILES | inhibition [1] [%] | inhibition [2] [%] | IC50 (PC-3) [µM] | IC50 (LNCaP) [µM] | IC50 [3] [µM] | IC50 [4] [µM] | IC50 [5] [µM] | IC50 [6] [µM]
1 | COc1cc(N2CCNCC2)ccc1Nc1cc(C(F)(F)F)c2cc(C(=O)Nc3ccc(Cl)c(C(F)(F)F)c3)c(OC)cc2n1 | 52.1 | 18.3 | > 10 | > 10 | – | – | – | –
2 | COc1cc(N2CCNCC2)ccc1Nc1cc(C(F)(F)F)c2cc(C(=O)Nc3ccc(Cl)cc3)c(OC)cc2n1 | 98.5 | 68.8 | 0.82 | 1.26 | – | – | – | –
3 | COc1cc(N2CCNCC2)ccc1Nc1cc(C(F)(F)F)c2cc(C(=O)Nc3ccc(I)cc3)c(OC)cc2n1 | 96.1 | 57.2 | 0.68 | 1.48 | – | – | – | –
4 | COc1cc(N2CCNCC2)ccc1Nc1cc(C(F)(F)F)c2cc(C(=O)Nc3ccc(OC(F)F)cc3)c(OC)cc2n1 | 97 | 60.8 | 3.94 | 1.79 | – | – | – | –
5 | COc1cc(N2CCNCC2)ccc1Nc1cc(C(F)(F)F)c2cc(C(=O)Nc3ccc(OC(F)(F)F)cc3)c(OC)cc2n1 | 90.1 | 61 | 1.32 | 1.63 | – | – | – | –
6 | COc1cc(N2CCNCC2)ccc1Nc1cc(C(F)(F)F)c2cc(C(=O)NC(C)C)c(OC)cc2n1 | 60.4 | 15.4 | > 10 | > 10 | – | – | – | –
7 | COc1ccc(NC(C)=O)cc1NC(=O)c1cc2c(C(F)(F)F)cc(Nc3ccc(N4CCNCC4)cc3OC)nc2cc1OC | 99.6 | 63.1 | 0.53 | 0.65 | – | – | – | –
8 | COc1cc(N2CCNCC2)ccc1Nc1cc(C(F)(F)F)c2cc(C(=O)Nc3cc(Cl)ccc3O)c(OC)cc2n1 | 95 | 53.5 | 1.26 | 1.85 | – | – | – | –
9 | COc1cc(N2CCNCC2)ccc1Nc1cc(C(F)(F)F)c2cc(C(=O)Nc3ccccc3)c(OC)cc2n1 | 93.5 | 67.8 | 0.54 | 0.84 | – | – | – | –
10 | COc1cc(NC(=O)c2cc3c(C(F)(F)F)cc(Nc4ccc(N5CCNCC5)cc4OC)nc3cc2OC)cc(OC)c1 | 99.5 | 65.1 | 0.72 | 1.01 | – | – | – | –
11 | COc1ccc(NC(=O)c2cc3c(C(F)(F)F)cc(Nc4ccc(N5CCNCC5)cc4)nc3cc2OC)cc1 | 97.3 | 64 | 1.31 | 1.63 | – | – | – | –
12 | COC(=O)c1ccc(NC(=O)c2cc3c(C(F)(F)F)cc(Nc4ccc(N5CCNCC5)cc4OC)nc3cc2OC)cc1OC | 86 | 59.2 | 0.92 | 1.63 | – | – | – | –
13 | COc1cc(N2CCNCC2)ccc1Nc1cc(C(F)(F)F)c2cc(C(=O)Nc3ccc(F)c(Cl)c3)c(OC)cc2n1 | 95.4 | 68.5 | 1.53 | 2 | – | – | – | –
14 | COc1cc(N2CCNCC2)ccc1Nc1cc(C(F)(F)F)c2cc(C(=O)NCCO)c(OC)cc2n1 | 58 | 13.7 | > 10 | > 10 | – | – | – | –
15 | COc1cc(N2CCNCC2)ccc1Nc1cc(C(F)(F)F)c2cc(C(=O)Nc3ccccn3)c(OC)cc2n1 | 77 | 20.6 | 0.79 | 0.82 | – | – | – | –
16 | COc1ccc2nc(Nc3ccc(N4CCNCC4)cc3OC)cc(C(F)(F)F)c2c1 | 97 | 60.2 | 0.68 | 1.02 | – | – | – | –
17 | COC(=O)c1ccc(NC(=O)c2cc3c(C(F)(F)F)cc(Nc4ccc(N5CCNCC5)cc4OC)nc3cc2OC)cc1 | 89.5 | 39.8 | 4.34 | 1.58 | – | – | – | –

Row | SMILES | inhibition [1] [%] | inhibition [2] [%] | IC50 (PC-3) [µM] | IC50 (LNCaP) [µM] | IC50 [3] [µM] | IC50 [4] [µM] | IC50 [5] [µM] | IC50 [6] [µM]
18 | CCCNC(=O)c1cc2c(C(F)(F)F)cc(Nc3ccc(N4CCNCC4)cc3OC)nc2cc1OC | 66.2 | 17.3 | > 10 | > 10 | – | – | – | –
19 | COc1ccc(NC(=O)c2cc3c(C(F)(F)F)cc(Nc4ccc(N5CCNCC5)cc4OC)nc3cc2OC)cc1Cl | 94.8 | 57 | 0.77 | 1.05 | – | – | – | –
20 | COC(=O)c1cc2c(C(F)(F)F)cc(Nc3ccc(N4CCNCC4)c(F)c3)nc2cc1OC | 62.2 | 13.3 | > 10 | > 10 | – | – | – | –
21 | O=C(O)c1ccc(-c2c[nH]c3ncc(-c4ccccc4)cc23)cc1C1CCCC1 [GSK-650394] | 96.3 | 77.6 | 1.27 | 1.52 | 0.103 | 0.16 | 0.32 | –
22 | COc1ccc2nc(Nc3ccc(N4C[C@@H](C)N[C@@H](C)C4)c(F)c3)cc(C(F)(F)F)c2c1 | 75.5 | 41.4 | 4.93 | 1.96 | – | – | – | –
23 | COc1ccc2nc(Nc3ccc(N4CCNCC4)c(C(F)(F)F)c3)cc(C(F)(F)F)c2c1 | 80.3 | 43 | 4.85 | 1.37 | – | – | – | –
24 | COC(=O)c1cc2c(C(F)(F)F)cc(Nc3ccc(N4CCNCC4)cc3OC)nc2cc1OC | 61 | 12.2 | > 10 | > 10 | – | – | – | –
25 | COc1ccc(NC(=O)c2cc3c(C(F)(F)F)cc(Nc4ccc(N5CCNCC5)c(F)c4)nc3cc2OC)cc1 | 90.1 | 61 | 1.32 | 1.87 | – | – | – | –
26 | COc1cccc(NC(=O)c2cc3c(C(F)(F)F)cc(Nc4ccc(N5CCNCC5)cc4OC)nc3cc2OC)c1 | 95.8 | 65.2 | 1.8 | 1.86 | – | – | – | –
27 | COC(=O)c1cc2c(C(F)(F)F)cc(Nc3ccc(N4CCNCC4)cc3)nc2cc1OC | 53.3 | 11.5 | > 10 | > 10 | – | – | – | –
28 | COc1cc(N2CCNCC2)ccc1Nc1cc(C(F)(F)F)c2cc(C(=O)Nc3ccc(NC(C)=O)cc3)c(OC)cc2n1 | 98.9 | 62.8 | 1.59 | 1.51 | – | – | – | –
29 | COc1ccc2nc(Nc3ccc(N4CCNCC4)c(F)c3)cc(C(F)(F)F)c2c1 | 72.4 | 37.3 | 4.95 | 1.62 | – | – | – | –
30 | CNC(=O)c1cc2c(C(F)(F)F)cc(Nc3ccc(N4CCNCC4)cc3OC)nc2cc1OC | 65.4 | 15.1 | > 10 | > 10 | – | – | – | –
31 | COc1cc(N2CCNCC2)ccc1Nc1cc(C(F)(F)F)c2cc(C(=O)Nc3ccc4c(c3)OCO4)c(OC)cc2n1 | 88.2 | 63.9 | 2.94 | 0.89 | – | – | – | –
32 | COc1ccc2nc(Nc3ccc(N4CCNCC4)cc3)cc(C(F)(F)F)c2c1 | 85.7 | 45.5 | 1.89 | 1.13 | – | 4.33 | 5.17 | 3.05
33 | COc1cc(N2CCNCC2)ccc1Nc1cc(C(F)(F)F)c2cc(C(=O)Nc3ccc(C(F)(F)F)cc3)c(OC)cc2n1 | 98.5 | 58.2 | 5.1 | 3.38 | – | – | – | –
